Laboratory results published in publication PMC10663540, “Structure-based discovery of dual pathway inhibitors for SARS-CoV-2 entry” (Nature Communications, 2023).
Several values for one entry are separate records, joined by “and”; a condition that tells them apart may be missing. Equal values may be shown once. Read-outs that look alike come from different tables or passages of the source.

Key:
in vitro = conditions: human
human CTSB = target: T1, human CTSB (Homo sapiens, UniProt P07858); experiment: biochemical
T1 construct: […]; made in house

human CTSL = target: T2, human CTSL (Homo sapiens, UniProt P07711); experiment: FRET enzymatic inhibition assay of CTSL (IC50 measurement); format: biochemical
T2 construct: made in house

Calu-3 cells = conditions: rep1-rep3
SARS-CoV-2 = format: cell-based; conditions: Supplementary Fig. 7b
TMPRSS2 = TMPRSS2 (Homo sapiens, UniProt O15393); experiment: biochemical; format: biochemical
[1] = 0.0762939 nM, rep1-rep4, 7.62939e-05 µM
[2] = 1.2207 nM, rep1-rep4, 0.0012207 µM
[3] = 156.25 nM, rep1-rep4, 0.15625 µM
[4] = substrate Cbz-Phe-Arg-AMC, pH 5.5, mean ± SD, four replicates

Chain of TMPRSS2 (O15393 256-492): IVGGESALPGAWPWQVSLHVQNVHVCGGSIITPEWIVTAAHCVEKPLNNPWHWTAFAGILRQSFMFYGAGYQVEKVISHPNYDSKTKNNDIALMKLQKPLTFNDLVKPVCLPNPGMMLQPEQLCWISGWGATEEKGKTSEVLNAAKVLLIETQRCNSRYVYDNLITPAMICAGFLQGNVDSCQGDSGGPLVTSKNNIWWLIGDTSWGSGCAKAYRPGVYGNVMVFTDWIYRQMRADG
Chain of TMPRSS2 (O15393 other isoform, or with tags, fused parts or gaps): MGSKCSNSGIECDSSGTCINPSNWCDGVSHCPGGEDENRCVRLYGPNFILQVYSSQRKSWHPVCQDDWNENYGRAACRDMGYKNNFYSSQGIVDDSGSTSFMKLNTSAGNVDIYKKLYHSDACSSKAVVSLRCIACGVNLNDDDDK
T2 sequence (P07711 114-333): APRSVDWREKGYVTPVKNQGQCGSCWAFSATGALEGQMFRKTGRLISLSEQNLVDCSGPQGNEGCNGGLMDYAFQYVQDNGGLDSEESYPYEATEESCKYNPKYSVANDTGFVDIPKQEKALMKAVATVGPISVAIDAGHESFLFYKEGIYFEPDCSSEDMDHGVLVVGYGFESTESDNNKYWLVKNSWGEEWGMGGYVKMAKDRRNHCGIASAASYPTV

CCOC(=O)C1OC1C(=O)NC(CC(C)C)C(=O)NCCC(C)C (stereo not drawn) [E64d]
CC50 (in vitro): > 1000 µM
Inhibition: CTSB (human CTSB; [1]): 3.40% and 10.64% and 11.97% and 5.82%
Inhibition: CTSB (human CTSB; [2]): -7.91% and 0.42% and 2.07% and 0.65%
inhibition at 0.15625 µM (human CTSB; 156.25 nM, rep1-rep4): 35.3%
Inhibition: CTSB (human CTSB; [3]): 44.31% and 44.26% and 38.99%
inhibition at 0.3125 µM (human CTSB; 312.5 nM, rep1-rep4): 56.2%
Inhibition: CTSB (human CTSB; 312.5 nM, rep1-rep4, 0.3125 µM): 62.85% and 55.87% and 62.55%
inhibition at 0.625 µM (human CTSB; 625 nM, rep1-rep4): 80.1%
Inhibition: CTSB (human CTSB; 625 nM, rep1-rep4, 0.625 µM): 80.11% and 80.88% and 83.45%
inhibition at 1.25 µM (human CTSB; 1250 nM, rep1-rep4): 98.7%
Inhibition: CTSB (human CTSB; 1250 nM, rep1-rep4, 1.25 µM): 92.94% and 89.91% and 97.77%
inhibition at 2.5 µM (human CTSB; 2500 nM, rep1-rep4): 95.4%
Inhibition: CTSB (human CTSB; 2500 nM, rep1-rep4, 2.5 µM): 107.12% and 95.70% and 101.34%
inhibition at 5 µM (human CTSB; 5000 nM, rep1-rep4): 105%
Inhibition: CTSB (human CTSB; 5000 nM, rep1-rep4, 5 µM): 104.22% and 97.92% and 95.52%
inhibition at 10 µM (human CTSB; 10000 nM, rep1-rep4): 97.9%
Inhibition: CTSB (human CTSB; 10000 nM, rep1-rep4, 10 µM): 102.20% and 95.59% and 101.48%
IC50 (human CTSB; [4]): 0.244 µM
Inhibition: CTSL (human CTSL; [1]): 2.24% and 3.63% and 1.98% and 0.98%
Inhibition: CTSL (human CTSL; 0.152588 nM, rep1-rep4, 0.000152588 µM): 2.65% and 3.08% and 2.24% and -1.44%
Inhibition: CTSL (human CTSL; 0.610352 nM, rep1-rep4, 0.000610352 µM): 0.22% and 3.41%
Inhibition: CTSL (human CTSL; [2]): 6.37% and 4.18%
Inhibition: CTSL (human CTSL; 2.44141 nM, rep1-rep4, 0.00244141 µM): 4.98% and 7.04% and 0.43% and 3.83%
Inhibition: CTSL (human CTSL; 4.88281 nM, rep1-rep4, 0.00488281 µM): 0.11% and 3.42% and 5.91% and 2.54%
Inhibition: CTSL (human CTSL; 9.76562 nM, rep1-rep4, 0.00976562 µM): 8.11% and 8.13% and 3.91% and 9.27%
inhibition at 0.0195312 µM (human CTSL; 19.5312 nM, rep1-rep4): 10.1%
Inhibition: CTSL (human CTSL; 19.5312 nM, rep1-rep4, 0.0195312 µM): 17.79% and 9.24% and 15.72%
inhibition at 0.0390625 µM (human CTSL; 39.0625 nM, rep1-rep4): 26.6%
Inhibition: CTSL (human CTSL; 39.0625 nM, rep1-rep4, 0.0390625 µM): 23.44% and 25.85% and 26.69%
inhibition at 0.078125 µM (human CTSL; 78.125 nM, rep1-rep4): 45.2%
Inhibition: CTSL (human CTSL; 78.125 nM, rep1-rep4, 0.078125 µM): 44.64% and 44.43% and 46.07%
inhibition at 0.15625 µM (human CTSL; 156.25 nM, rep1-rep4): 72.7%
Inhibition: CTSL (human CTSL; [3]): 70.94% and 71.67% and 71.32%
inhibition at 0.3125 µM (human CTSL; 312.5 nM, rep1-rep4): 93.6%
Inhibition: CTSL (human CTSL; 312.5 nM, rep1-rep4, 0.3125 µM): 93.64% and 93.89% and 93.96%
inhibition at 0.625 µM (human CTSL; 625 nM, rep1-rep4): 99.2%
Inhibition: CTSL (human CTSL; 625 nM, rep1-rep4, 0.625 µM): 99.81% and 99.40% and 99.47%
inhibition at 1.25 µM (human CTSL; 1250 nM, rep1-rep4): 100%
Inhibition: CTSL (human CTSL; 1250 nM, rep1-rep4, 1.25 µM): 100.20% and 99.89%
inhibition at 2.5 µM (human CTSL; 2500 nM, rep1-rep4): 99.2%
Inhibition: CTSL (human CTSL; 2500 nM, rep1-rep4, 2.5 µM): 100.15% and 100.23% and 99.74%
inhibition at 5 µM (human CTSL; 5000 nM, rep1-rep4): 99.9%
Inhibition: CTSL (human CTSL; 5000 nM, rep1-rep4, 5 µM): 100.31% and 99.95%
inhibition at 10 µM (human CTSL; 10000 nM, rep1-rep4): 100%
Inhibition: CTSL (human CTSL; 10000 nM, rep1-rep4, 10 µM): 100.02% and 99.97%
IC50 (human CTSL; [4]): 0.0889 µM
Cytotoxicity (Calu-3 cells; 0.017 μM): 7.45% and 7.84% and 8.16%
Cytotoxicity (Calu-3 cells; 0.05 μM): 11.45% and 12.03% and 11.72%
Cytotoxicity (Calu-3 cells; 0.15 μM): 9.87% and 10.28% and 10.63%
Cytotoxicity (Calu-3 cells; 0.46 μM): 7.15% and 7.70% and 8.12%
Cytotoxicity (Calu-3 cells; 4.1 μM): 1.63% and 2.06% and 2.63%
Cytotoxicity (Calu-3 cells; 12.3 μM): -0.11% and 0.47% and 0.96%
Cytotoxicity (Calu-3 cells; 111.1 μM): -4.79% and -4.14% and -3.55%
Cytotoxicity (Calu-3 cells; 333.3 μM): 12.34% and 13.88% and 14.55%
Cytotoxicity (Calu-3 cells; 1000 μM): 23.12% and 23.57% and 24.06%

CN(C)C(=O)COC(=O)Cc1ccc(OC(=O)c2ccc(NC(=N)N)cc2)cc1 [Camostat]
CC50 (in vitro): 173 µM
Virus titer (SARS-CoV-2; Camostat 1.1 μM): 7460 TCID50/ml and 6320 TCID50/ml and 12600 TCID50/ml
Virus titer (SARS-CoV-2; Camostat 3.3 μM): 26200 TCID50/ml and 15900 TCID50/ml and 20000 TCID50/ml
Inhibition: TMPRSS2 (TMPRSS2; 38.15 pM): 2.63% and 1.07% and 2.97% and 3.20%
Inhibition: TMPRSS2 (TMPRSS2; 76.29 pM): 3.24% and 1.14% and 2.29% and 3.03%
Inhibition: TMPRSS2 (TMPRSS2; 0.000152588 µM): 4.34% and 0.64% and 2.45% and 2.60%
Inhibition: TMPRSS2 (TMPRSS2; 0.000305176 µM): 3.31% and 1.96% and 3.39% and 4.38%
Inhibition: TMPRSS2 (TMPRSS2; 0.000610352 µM): 3.86% and 5.10% and 6.39%
Inhibition: TMPRSS2 (TMPRSS2; 0.0012207 µM): 7.07% and 9.81% and 8.80%
Inhibition: TMPRSS2 (TMPRSS2; 0.00244141 µM): 17.35% and 18.09% and 18.86%
Inhibition: TMPRSS2 (TMPRSS2; 0.00488281 µM): 31.26% and 30.95% and 31.85%
Inhibition: TMPRSS2 (TMPRSS2; 0.00976562 µM): 51.72% and 52.80% and 52.15%
Inhibition: TMPRSS2 (TMPRSS2; 0.0195312 µM): 77.54% and 78.82% and 77.32%
Inhibition: TMPRSS2 (TMPRSS2; 0.0390625 µM): 94.79% and 94.98% and 94.57%
Inhibition: TMPRSS2 (TMPRSS2; 0.078125 µM): 99.75% and 99.96% and 99.42%
Inhibition: TMPRSS2 (TMPRSS2; 0.15625 µM): 100.65% and 100.24%
Inhibition: TMPRSS2 (TMPRSS2; 0.3125 µM): 99.93% and 100.23% and 99.75%
Inhibition: TMPRSS2 (TMPRSS2; 0.625 µM): 100.21% and 100.53% and 100.35%
Inhibition: TMPRSS2 (TMPRSS2; 1.25 µM): 99.64% and 100.51%
Inhibition: TMPRSS2 (TMPRSS2; 2.5 µM): 100.23% and 100.42% and 100.20%
Inhibition: TMPRSS2 (TMPRSS2; 5 µM): 99.87% and 100.54% and 99.70%
inhibition at 0.000610352 µM (TMPRSS2; read-out: Inhibition: TMPRSS2): 6.23%
inhibition at 0.0012207 µM (TMPRSS2; read-out: Inhibition: TMPRSS2): 9.58%
inhibition at 0.00244141 µM (TMPRSS2; read-out: Inhibition: TMPRSS2): 17.5%
inhibition at 0.00488281 µM (TMPRSS2; read-out: Inhibition: TMPRSS2): 31.5%
inhibition at 0.00976562 µM (TMPRSS2; read-out: Inhibition: TMPRSS2): 52.1%
inhibition at 0.0195312 µM (TMPRSS2; read-out: Inhibition: TMPRSS2): 77.3%
inhibition at 0.0390625 µM (TMPRSS2; read-out: Inhibition: TMPRSS2): 94.7%
inhibition at 0.078125 µM (TMPRSS2; read-out: Inhibition: TMPRSS2): 99.7%
inhibition at 0.15625 µM (TMPRSS2; read-out: Inhibition: TMPRSS2): 100%
inhibition at 0.3125 µM (TMPRSS2; read-out: Inhibition: TMPRSS2): 100%
inhibition at 0.625 µM (TMPRSS2; read-out: Inhibition: TMPRSS2): 100%
inhibition at 1.25 µM (TMPRSS2; read-out: Inhibition: TMPRSS2): 100%
inhibition at 2.5 µM (TMPRSS2; read-out: Inhibition: TMPRSS2): 100%
inhibition at 5 µM (TMPRSS2; read-out: Inhibition: TMPRSS2): 100%
Cytotoxicity (Calu-3 cells; 0.0128 μM): 0.76% and 0.62% and 0.69%
Cytotoxicity (Calu-3 cells; 0.064 μM): 2.27% and 2.13% and 2.46%
Cytotoxicity (Calu-3 cells; 8 μM): 7.46% and 7.33% and 7.34%
Cytotoxicity (Calu-3 cells; 40 μM): 10.06% and 10.11% and 10.29%
Cytotoxicity (Calu-3 cells; 200 μM): 58.17% and 58.19% and 58.30%
Cytotoxicity (Calu-3 cells; 1000 μM): 96.27% and 96.26% and 96.22%
